Measurements as given in patent US20120177701A1, “COMPOSITIONS COMPRISING IMMUNOSTIMULATORY NUCLEIC ACIDS AND RELATED METHODS” (priority 2010, published 2012).

Assays:
[1] = test system: primary human lymphocytes; assay type: cell-based; details: 20 hours
human TLR8 = biological target: T1, human TLR8 (Homo sapiens, UniProt Q9NR97); test: HEK-Blue hTLR8 NF-kB-inducible SEAP reporter assay (TLR8 activation); assay type: cell-based
T1 construct: host or cells: HEK293 (HEK-Blue hTLR8) with NF-kB-inducible SEAP reporter
T1 sequence (Q9NR97 27-1041): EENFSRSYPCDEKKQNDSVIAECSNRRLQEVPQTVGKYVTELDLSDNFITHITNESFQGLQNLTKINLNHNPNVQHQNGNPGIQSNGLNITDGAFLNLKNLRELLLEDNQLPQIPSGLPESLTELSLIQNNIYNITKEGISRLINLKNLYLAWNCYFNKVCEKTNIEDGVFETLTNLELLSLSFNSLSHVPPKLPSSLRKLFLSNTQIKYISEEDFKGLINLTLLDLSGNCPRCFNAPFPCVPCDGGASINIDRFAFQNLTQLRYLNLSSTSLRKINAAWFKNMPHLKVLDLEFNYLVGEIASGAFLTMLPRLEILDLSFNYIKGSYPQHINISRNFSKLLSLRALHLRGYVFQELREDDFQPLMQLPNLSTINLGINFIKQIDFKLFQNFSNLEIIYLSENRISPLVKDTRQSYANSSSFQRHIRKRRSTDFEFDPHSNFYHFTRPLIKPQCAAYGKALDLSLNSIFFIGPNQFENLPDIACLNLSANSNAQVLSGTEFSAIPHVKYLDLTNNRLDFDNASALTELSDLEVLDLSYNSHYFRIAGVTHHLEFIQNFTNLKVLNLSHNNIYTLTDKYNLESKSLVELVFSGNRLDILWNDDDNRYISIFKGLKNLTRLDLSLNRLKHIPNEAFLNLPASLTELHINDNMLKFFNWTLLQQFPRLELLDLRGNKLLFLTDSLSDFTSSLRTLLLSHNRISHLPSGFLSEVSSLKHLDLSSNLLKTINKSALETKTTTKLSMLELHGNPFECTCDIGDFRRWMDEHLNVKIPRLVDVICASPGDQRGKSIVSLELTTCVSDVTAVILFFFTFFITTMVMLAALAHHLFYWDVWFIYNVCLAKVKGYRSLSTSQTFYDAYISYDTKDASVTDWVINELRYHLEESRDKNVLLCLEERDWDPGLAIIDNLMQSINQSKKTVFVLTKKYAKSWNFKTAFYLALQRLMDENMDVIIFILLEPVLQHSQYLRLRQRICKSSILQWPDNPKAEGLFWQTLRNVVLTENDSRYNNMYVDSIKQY

human TLR9 = biological target: T2, human TLR9 (Homo sapiens, UniProt Q9NR96); assay type: cell-based
T2 construct: expressed in transfected cells; host or cells: HEK-Blue hTLR9 (HEK293-derived reporter line)
T2 sequence (Q9NR96 26-1032): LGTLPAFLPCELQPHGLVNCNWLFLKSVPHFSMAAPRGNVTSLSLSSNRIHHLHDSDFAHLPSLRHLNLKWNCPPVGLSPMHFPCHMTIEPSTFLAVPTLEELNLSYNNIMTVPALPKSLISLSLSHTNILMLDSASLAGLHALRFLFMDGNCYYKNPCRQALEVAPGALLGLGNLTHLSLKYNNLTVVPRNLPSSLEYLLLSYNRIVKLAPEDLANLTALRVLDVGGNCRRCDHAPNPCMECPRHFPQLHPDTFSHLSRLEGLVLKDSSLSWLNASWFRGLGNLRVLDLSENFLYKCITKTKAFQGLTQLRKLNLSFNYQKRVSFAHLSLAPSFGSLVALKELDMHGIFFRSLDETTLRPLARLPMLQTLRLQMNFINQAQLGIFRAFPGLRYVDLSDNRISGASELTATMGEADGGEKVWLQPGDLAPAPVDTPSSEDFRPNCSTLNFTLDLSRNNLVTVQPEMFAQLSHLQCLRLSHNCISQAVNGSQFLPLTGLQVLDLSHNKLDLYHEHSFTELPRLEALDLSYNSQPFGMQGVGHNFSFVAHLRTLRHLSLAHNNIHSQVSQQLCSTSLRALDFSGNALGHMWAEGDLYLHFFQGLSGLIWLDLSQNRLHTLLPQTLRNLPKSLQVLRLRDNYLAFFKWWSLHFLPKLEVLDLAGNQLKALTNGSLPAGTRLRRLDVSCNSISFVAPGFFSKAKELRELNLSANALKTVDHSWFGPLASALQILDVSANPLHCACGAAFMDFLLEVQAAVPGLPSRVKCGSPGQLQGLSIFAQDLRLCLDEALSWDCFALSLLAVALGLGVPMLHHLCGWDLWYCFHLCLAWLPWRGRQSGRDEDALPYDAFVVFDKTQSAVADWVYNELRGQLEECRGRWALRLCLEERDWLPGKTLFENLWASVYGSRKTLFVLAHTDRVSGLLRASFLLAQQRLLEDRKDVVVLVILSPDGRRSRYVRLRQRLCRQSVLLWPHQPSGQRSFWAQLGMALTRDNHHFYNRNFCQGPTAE

J774 murine macrophages = test: TNF-α induction in mouse macrophage cell line J774; assay type: cell-based
Experimental: Induction of TNF-α by macrophages is a hallmark of human TLR8 activation (Forsbach et al., 2008, J. Immunol., 180:3729-38; Ghosh et al., 2007, Int. Immunopharmacol., 7:1111-21; Gorden et al., 2005, J. Immunol., 174:1259-68). […] In the following experiment mouse macrophage cell line, J774, has been transfected by test ribonucleotides as described above for HEK-Blue™ hTLR8 cells (with the exception that 2-10×10^4 cells/well were used) and TNF-α was measured in culture supernatants at 16-20 hours after transfection.

murine splenocytes = test: Immune cell activation (CD69 expression, FACS) in murine splenocytes; assay type: cell-based, mouse; details: 20 hours
Experimental: In addition, upon removal of the supernatant at 20 hours post-incubation, the mouse cells were stained for the following cell markers: GR1, F4/80, CD11c, CD220, CD3, Ly49b, and CD69, and analyzed by FACS. Different immune cell populations were distinguished as follows: macrophages (F4/80^+/GR1^−); plasmacytoid dendritic cells or pDC (CD11c^+/CD220^+); B cells (CD220^+/CD11c^−); NK (CD3^−/Ly49b^+); myeloid DC or mDC ([…]); granulocytes (eosinophils) (GR1^+high/F4/80^−); T cells (CD3^+); and NKT cells (CD3^+/Ly49b^+). All immune cell populations were quantified by the expression of CD69 (am early activation marker).

[2] = 200 nM, compared with R848 1 μM

Q: “5′-GAGAUGUUAUUUUGUUUUUAAUAUUUC-3′ (phosphorothioate backbone, further chemistry not given here) [SL-0001, phosphorothioated 27-ribonucleotide from the 3′-terminus of Chikungunya virus strain TSI-GSD-218, bases 12010-12036]” was tested. Which “11-12(p40) induction” value [1] did it give?
A: significant levels

Q: What about the IFNγ induction [1] of the same substance?
A: significant levels

Q: What about the “IL-4 induction (Th2-type cytokine)” value [1] of the same substance?
A: insignificant

Q: And the “IL-5 induction (Th2-type cytokine)” value [1]?
A: insignificant

Q: And the IL-6 induction [1]?
A: significant levels

Q: And the IL-10 induction [1]?
A: significant levels

Q: And the IL-23 induction [1]?
A: significant levels

Q: What about the TNFα induction [1] of the same substance?
A: significant levels

Q: And the “TLR8 activation (fold increase of SEAP induction over the background), described in words” value (human TLR8)?
A: stronger levels of TLR8 activation

Q: What about the “concentration at which TLR8 activation was detected starting” value (human TLR8) of the same substance?
A: 40 nM

Q: What about the “activation of SEAP expression” value (human TLR9) of the same substance?
A: No activation of SEAP expression

Q: What about the “TNF-α induction, described in words” value (J774 murine macrophages) of the same substance?
A: strongly induced TNF-α expression, to the level seen when R-0006 was used

Q: What about the “activation of immune cell populations (CD69 expression)” value (murine splenocytes; 200 nM DOTAP-complexed) of the same substance?
A: induced activation in most of the tested immune cell populations

Q: What about the “immune cell activation compared with R848 and control oligonucleotide” value (murine splenocytes; 200 nM DOTAP-complexed, R848 1 μM) of the same substance?
A: at least comparable to that generated by treatment with 1 μM of R848, and usually exceeded the effects exhibited by the control oligonucleotide R-0006

Q: And the “NKT cell activation (CD69)” value (murine splenocytes; [2])?
A: exceeded the activation observed for R848

Q: What about the “T cell activation (CD69)” value (murine splenocytes; [2]) of the same substance?
A: exceeded the activation observed for R848

Q: And the “granulocyte activation (CD69)” value (murine splenocytes; [2])?
A: exceeded the activation observed for R848

Q: And the “macrophage activation (CD69)” value (murine splenocytes; 200 nM, compared with R-0006)?
A: especially higher than the activation observed for R-0006
